Assay [1] has as its target ALK6 (Homo sapiens, UniProt O00238). In words: TR-FRET enzymatic ALK kinase assay, ALK6. In general terms: In TR-FRET formats the signal depends on donor and acceptor labels being close together.
Experimental: (§1) Briefly, the ALKs enzymatic assay was initiated by dispense 2.5 μl enzyme in 1× kinase reaction buffer. The assay plate was then added with compounds followed by incubation at room temperature for 10 minutes. Then 2.5 μl/well substrate was added.
In assay [2] the target is ALK3 (Homo sapiens, UniProt P36894). In words: TR-FRET enzymatic ALK kinase assay, ALK3.
Experimental: as §1
Assay [3] deals with T1, ALK2 (Homo sapiens, UniProt Q04771).
T1 sequence (Q04771 21-509): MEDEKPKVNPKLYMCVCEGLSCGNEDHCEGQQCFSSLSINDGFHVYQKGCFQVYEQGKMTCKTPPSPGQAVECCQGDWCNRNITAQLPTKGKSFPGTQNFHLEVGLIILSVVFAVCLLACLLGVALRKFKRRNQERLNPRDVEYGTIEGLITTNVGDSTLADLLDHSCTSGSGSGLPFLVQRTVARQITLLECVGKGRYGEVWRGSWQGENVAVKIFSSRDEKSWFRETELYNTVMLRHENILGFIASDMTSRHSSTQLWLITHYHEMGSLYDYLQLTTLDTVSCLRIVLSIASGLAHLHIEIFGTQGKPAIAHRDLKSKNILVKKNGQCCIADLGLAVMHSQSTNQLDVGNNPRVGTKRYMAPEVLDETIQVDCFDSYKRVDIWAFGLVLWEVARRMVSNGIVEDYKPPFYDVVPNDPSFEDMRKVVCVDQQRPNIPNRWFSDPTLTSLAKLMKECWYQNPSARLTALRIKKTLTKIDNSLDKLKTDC
In words: TR-FRET enzymatic ALK kinase assay, ALK2.
Experimental: as §1

In assay [4] the target is T2, ALK2 (Mus musculus, UniProt P37172).
T2 construct: The C2C12 cell line was selected for the measurement of ALK2 activity using BMP6 as the agonist; host or cells: C2C12
T2 sequence (P37172 21-509): T1 sequence (Q04771 21-509) with M1V, P10Q, L121I, D162E, P310S
Nature of the assay: HTRF pSMAD1 cell-based ALK2 assay (C2C12 cells, BMP6 as agonist). In short, it runs like this:
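Phospho-SMAD1 HTRF readout, detection incubated overnight at room temperature. Before that: starved cells in 0.1% FBS for 4 h, 30 min compound pretreatment, then 30 min agonist, BMP6 on C2C12 or BMP9 on BAOEC.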

Residue numbers refer to the chain shown, from its start. pIC50: −log10 of the molar value. Where two headings read alike, the source gives them in different places.

ALK3, sequence (P36894 24-532): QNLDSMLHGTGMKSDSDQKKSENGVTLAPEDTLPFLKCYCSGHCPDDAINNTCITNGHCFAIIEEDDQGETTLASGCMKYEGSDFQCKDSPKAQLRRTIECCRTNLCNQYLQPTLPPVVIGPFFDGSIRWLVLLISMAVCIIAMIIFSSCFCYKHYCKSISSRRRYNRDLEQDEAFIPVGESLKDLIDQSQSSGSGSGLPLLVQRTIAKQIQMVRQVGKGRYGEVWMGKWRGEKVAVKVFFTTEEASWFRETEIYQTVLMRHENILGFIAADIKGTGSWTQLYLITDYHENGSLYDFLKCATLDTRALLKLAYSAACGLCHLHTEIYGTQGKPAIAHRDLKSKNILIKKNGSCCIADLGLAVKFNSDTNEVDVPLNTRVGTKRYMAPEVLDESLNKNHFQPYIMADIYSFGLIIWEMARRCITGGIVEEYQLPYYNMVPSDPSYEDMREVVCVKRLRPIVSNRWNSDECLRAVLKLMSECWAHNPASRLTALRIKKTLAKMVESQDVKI
ALK6, sequence (O00238 14-502): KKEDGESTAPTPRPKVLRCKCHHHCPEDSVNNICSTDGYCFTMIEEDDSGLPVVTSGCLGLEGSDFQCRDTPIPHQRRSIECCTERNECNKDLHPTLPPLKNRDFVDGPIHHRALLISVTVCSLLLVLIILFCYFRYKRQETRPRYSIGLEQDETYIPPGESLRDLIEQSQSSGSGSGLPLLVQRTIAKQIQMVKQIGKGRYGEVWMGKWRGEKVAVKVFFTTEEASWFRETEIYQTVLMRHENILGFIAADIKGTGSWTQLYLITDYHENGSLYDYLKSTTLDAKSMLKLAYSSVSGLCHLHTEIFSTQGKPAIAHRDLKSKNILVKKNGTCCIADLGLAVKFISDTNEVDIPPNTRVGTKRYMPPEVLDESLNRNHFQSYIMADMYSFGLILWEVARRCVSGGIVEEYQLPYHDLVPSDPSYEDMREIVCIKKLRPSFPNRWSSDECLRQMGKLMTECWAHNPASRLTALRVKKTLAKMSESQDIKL

On to `CC[S+](=O)([O-])c1cccc(-c2cnn3cc(-c4ccc(N5[C@H](C)CNC[C@@H]5C)cc4)cnc23)c1` [Compound 104, 6-(4-((2R,6S)-2,6-dimethylpiperazin-1-yl)phenyl)-3-(3-(ethylsulfonyl)phenyl)pyrazolo[1,5-a]pyrimidine], for which the pIC50 in assay [1] is 5.13; in assay [2] it was 6.29; in assay [3], 7.85; in assay [4] (HTRF assay, BMP6 as agonist, C2C12 cells, read-out: BMP6 HTRF), 6.77; in assay [4] (cell-based assay, BMP6, read-out: Cell IC50 BMP6), 8.89.

Source of the values: patent US10513521B2, “Compositions and methods for inhibiting BMP” (The Brigham and Women's Hospital, Inc., priority 2014, dated 2019).
